Laboratory results reported in patent publication US7348425B2, “Inhibitors of HCV replication” (Bristol-Myers Squibb Company, priority 2004, dated 2008).
pEC50, pIC50: −log10 of the molar value. Where two headings read alike, the source gives them in different places.

Tests used:
HCV = conditions: cited from earlier work
[1] = biological target: T1, HCV NS5B RdRp genotype 1b (Hepatitis C virus genotype 1b, UniProt Q9WMX2); assay: Standard HCV NS5B RdRp enzyme assay; assay type: biochemical; conditions: standard method
T1 construct: The protein was expressed with an 18 amino acid C-terminal truncation to enhance the solubility; made in house; host or cells: E. coli BL21 (DE3), pET21a
How it was run: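 C-terminally truncated (18 aa) genotype 1b NS5B from E. coli, 28 nM, with 6 nM polyA template, 180 nM biotin-oligo-dT12 primer and ³H-UTP (0.29 μM total UTP) in pH 7.5 Hepes buffer, 2% DMSO. 60 min at 30° C, EDTA/SPA-bead stop; IC50 from seven concentrations by four-parameter fit.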

HCV replicon = HCV replicon luciferase assay; assay type: cell-based, Hepatitis C virus; conditions: luciferase method, read-out: EC50
How it was run: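 Replicon cells, some carrying a Renilla luciferase reporter, were incubated with titrated compound at 37 °C; Alamar blue measured cytotoxicity, followed by a kinetic FRET peptide read (340/490 nm) or Dual-Glo luciferase. Activity was normalized to untreated controls after subtracting background from high-dose protease inhibitor wells; EC50 was the concentration giving 50% signal reduction.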

T1 sequence (Q9WMX2 2420-2992): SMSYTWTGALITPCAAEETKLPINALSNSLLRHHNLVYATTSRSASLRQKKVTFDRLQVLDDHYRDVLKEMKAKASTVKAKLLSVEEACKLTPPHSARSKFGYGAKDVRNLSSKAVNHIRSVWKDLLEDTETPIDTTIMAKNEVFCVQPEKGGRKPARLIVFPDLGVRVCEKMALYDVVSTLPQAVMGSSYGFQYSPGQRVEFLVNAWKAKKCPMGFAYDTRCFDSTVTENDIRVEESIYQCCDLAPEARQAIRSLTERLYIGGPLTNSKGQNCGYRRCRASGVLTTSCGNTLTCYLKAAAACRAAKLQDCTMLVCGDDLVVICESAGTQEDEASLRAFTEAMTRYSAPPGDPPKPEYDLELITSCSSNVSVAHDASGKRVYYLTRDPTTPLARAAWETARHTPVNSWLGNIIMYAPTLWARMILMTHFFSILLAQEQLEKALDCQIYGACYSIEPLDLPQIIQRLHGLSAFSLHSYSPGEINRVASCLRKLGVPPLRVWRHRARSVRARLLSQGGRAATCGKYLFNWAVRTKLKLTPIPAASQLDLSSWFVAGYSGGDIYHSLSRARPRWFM

Row | Compound | pIC50 [1] | pEC50 (HCV replicon; Hepatitis C virus) | also measured
1 | pegylated alpha-interferon | – | – | clinical results as monotherapy (HCV; compared with unmodified alpha-interferon): superior to unmodified alpha-interferon
2 | alpha-interferon and ribavirin [reference compound] | – | – | sustained efficacy, share of patients (HCV; HCV patients, combination therapy): 40%
3 | CN(C)S(=O)(=O)NC(=O)c1ccc2c(C3CCCCC3)c3n(c2c1)CC(C(=O)N1CCN(c2ccncc2)CC1)Cc1ccccc1-3 (stereo not drawn) | 6.00 to 7.00 | > 7.00 | –
4 | CNC(=O)C1Cc2ccccc2-c2c(C3CCCCC3)c3ccc(C(=O)O)cc3n2C1 (stereo not drawn) | 6.00 to 7.00 | 6.00 to 7.00 | –
5 | COC(=O)c1ccc2c(C3CCCCC3)c3n(c2c1)CC(C(=O)N1CCOCC1)=Cc1ccccc1-3 | < 6.00 | 5.00 to 6.00 | –
6 | O=C(O)c1ccc2c(C3CCCCC3)c3n(c2c1)CC(C(=O)N1CCOCC1)Cc1ccccc1-3 (stereo not drawn) [drawing 115] | 6.00 to 7.00 | – | pEC50 (HCV replicon): 6.00 to 7.00
7 | Cn1cnc(S(=O)(=O)NC(=O)c2ccc3c(C4CCCCC4)c4n(c3c2)CCCc2ccccc2-4)c1 | < 6.00 | 5.00 to 6.00 | –
